# Test results: patent US20020183307A1, “Novel 1,4-benzothiazephine and 1,5-benzothiazepine compounds as inhibitors of apical sodium co-dependent bile acid transport and taurocholate uptake” (priority 2000, published 2002)
# Target: T1, human IBAT (Homo sapiens, UniProt Q12908)
# T1 construct: expressed in transfected cells; host or cells: Baby hamster kidney (BHK) cells, H14 clone
# T1 sequence (Q12908 1-348): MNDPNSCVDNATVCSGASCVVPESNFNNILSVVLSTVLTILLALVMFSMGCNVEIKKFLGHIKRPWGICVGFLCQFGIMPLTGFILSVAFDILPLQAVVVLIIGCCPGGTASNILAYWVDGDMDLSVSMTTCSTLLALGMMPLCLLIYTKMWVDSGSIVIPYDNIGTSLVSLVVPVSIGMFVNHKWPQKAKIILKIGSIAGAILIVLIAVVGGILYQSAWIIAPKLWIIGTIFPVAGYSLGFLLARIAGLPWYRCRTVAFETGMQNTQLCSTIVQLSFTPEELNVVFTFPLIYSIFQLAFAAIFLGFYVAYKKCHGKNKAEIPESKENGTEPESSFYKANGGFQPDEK
# Assay: In vitro assay of compounds that inhibit IBAT-mediated uptake of [14C]-taurocholate (TC) in H14 cells
# Assay type: cell-based
# Conditions: Table 7, 1,5-benzothiazepines; 50% inhibitory concentrations by the biological evaluation procedures
# Protocol: In Vitro Assay of Compounds That Inhibit IBAT-mediated Uptake of [^14C]-Taurocholate (TC) in H14 Cells
# Baby hamster kidney cells (BHK) transfected with the cDNA of human IBAT (Hl4 cells) are seeded in 96 well Top-Count tissue culture plates at 60,000 cells/well for assays run within 24 hours of seeding, 30,000 cells/well for assays run within 48 hours, and 10,000 cells/well for assays run within 72 hours.
# On the day of assay, the cell monolayer is gently washed once with […] (Dulbecco's Modified Eagle's medium with 4.5 g/L glucose plus 0.2% (w/v) fatty acid free bovine serum albumin ((FAF)BSA). To each well […] of a two-fold concentrate of test compound in assay buffer is added along with […] of […] [^14C]-taurocholate in assay buffer (final concentration of […] [^14C]-taurocholate).
# The cell culture plates are incubated 2 hours at 37° C. prior to gently washing each well twice with […] 4° C. Dulbecco's phosphate-buffered saline (PBS) containing 0.2% (w/v) (FAF)BSA. The wells are then gently washed once with […] 4° C. PBS without (FAF)BSA. To each […] of liquid, scintillation counting fluid is added.
# The plates are heat sealed and shaken for 30 minutes at room temperature prior to measuring the amount of radioactivity in each well on a Packard Top-Count instrument.
row,Structure (SMILES),IC50 [nM]
1,CCCCC1(CCCC)CN(c2ccc(OCc3ccc(C[N+]45CCN(CC4)CC5)cc3)cc2)c2cc(N(C)C)ccc2S(=O)(=O)C1 [PHA00384640E],31
2,CCCCC1(CCCC)CN(c2ccc(OCCN(CC)CC)cc2)c2cc(N(C)C)ccc2S(=O)(=O)C1 [PHA00400670],26400
3,CCCCC1(CCCC)CN(c2ccc(OCC[N+](CC)(CC)CC)cc2)c2cc(N(C)C)ccc2S(=O)(=O)C1 [PHA00400884E],> 1000
4,CCCCC1(CCCC)CN(c2ccc(OCCOCCOCC[N+](CC)(CC)CC)cc2)c2cc(N(C)C)ccc2S(=O)(=O)C1 [PHA00400885E],300
5,CCCCC1(CCCC)CN(c2ccc(OC)cc2)c2cc(N(C)C)ccc2S(=O)(=O)C1 [SC-86287],289
6,CCCCC1(CCCC)CN(c2ccc(OC)cc2)c2cc(F)ccc2S(=O)(=O)C1 [SC-86288],320

# Same assay, conditions: Table 8, 1,4 and 1,5 benzothiazipines; additional IC50 values
row,Structure (SMILES),IC50 [nM]
1,"CCCCC1(CCCC)CS(=O)(=O)c2ccc(N(C)C)cc2[C@@H](c2ccc(OCC[N+](CC)(CC)CC)cc2)N1 (racemic) [Compound 3, N-[2-[4-[3,3-Dibutyl-7-(dimethylamino)-2,3,4,5-etrahydro-1,1-dioxido-1,4-benzothiazepin-5-yl]phenoxy]ethyl]-N,N,N-triethylaminium Iodide]",2090
2,"CCCCC1(CCCC)CS(=O)(=O)c2ccc(N(C)C)cc2[C@@H](c2ccc(OCCOCCOCC[N+](CC)(CC)CC)cc2)N1 (racemic) [Compound 4, N-[2-[2-[2-[4-[3,3-Dibutyl-7-(dimethylamino)-2,3,4,5-tetrahydro-1,1-dioxido-1 4-benzothiazepin-5-yl]phenoxy]ethoxy]ethoxy]ethoxy]-N,N,N-triethylaminium Iodide]",74
3,CCCCC1(CCCC)CS(=O)(=O)c2ccc(N(C)C)cc2[C@@H](c2ccc(OCc3ccc(C[N+]45CCN(CC4)CC5)cc3)cc2)N1 (racemic) [Compound 5],22
4,CCCC[C@]1(CC)CS(=O)(=O)c2ccccc2[C@@H](c2ccccc2)N1 [Compound 1],600
5,"CCCCC1(CCCC)CN(c2ccc(OC)cc2)c2cc(N(C)C)ccc2S(=O)(=O)C1 [Compound 6, 3,3-Dibutyl-2,3,4,5-tetrahydro-7-dimethylamino-5-(4′-methoxyphenyl)-1,5-benzothiazepine1,1-dioxide]",289
6,CCCCC1(CCCC)CN(c2ccc(OCC[N+](CC)(CC)CC)cc2)c2cc(N(C)C)ccc2S(=O)(=O)C1 [Compound 7],15100
7,"CCCCC1(CCCC)CN(c2ccc(OCCOCCOCC[N+](CC)(CC)CC)cc2)c2cc(N(C)C)ccc2S(=O)(=O)C1 [Compound 8, N-[2-[2-[2-[4-[3,3-Dibutyl-7-(dimethylamino)-2,3,4,5-tetrahydro-1,1-dioxido-1,5-benzothiazepin-5-yl]phenoxy]ethoxy]ethoxy]ethoxy]-NNN-triethylaminium Iodide]",300
8,"CCCCC1(CCCC)CN(c2ccc(OCc3ccc(C[N+]45CCN(CC4)CC5)cc3)cc2)c2cc(N(C)C)ccc2S(=O)(=O)C1 [Compound 9, 1-[[4-[[4-[3,3-Dibutyl-7-(dimethylamino)-2,3,4,5-tetrahydro-1,1-dioxido-1,5-benzothiazepin-5-yl]phenoxy]methyl]phenyl]methyl]-4-aza-1-azoniabicyclo[2.2.2]octane Chloride]",30
